Data reported in PubChem BioAssay AID1117319 (Southern Research Institute, 2015).
Results filed as inconclusive are left out.

These compounds were tested against Virion infectivity factor (Human immunodeficiency virus type 1 group M subtype B (isolate BH10)) + Virion infectivity factor (Human immunodeficiency virus type 1 group M subtype B (isolate BRU/LAI)) + Virion infectivity factor (Human immunodeficiency virus type 1 group M subtype B (isolate PCV12)) + Virion infectivity factor (Human immunodeficiency virus type 1 group M subtype B (isolate HXB2)) + DNA dC->dU-editing enzyme APOBEC-3G (Homo sapiens) (UniProt P69720+P69721+P69722+P69723+Q9HC16) (assay: HIV-1 Vif–A3G interaction blockers – biochemical, TR-FRET, GST-Vif 1-94, biotin-A3G peptide, dose response retest, primary screen (AID 1117319;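 also: Vif residues 1-94 fused to GST binding biotinylated APOBEC3G peptide 110-148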)). Conditions: TR-FRET GST-Vif / biotin-A3G peptide binding.

Row | SMILES | IC50 [µM]
1 | COc1ccc(OC)c(S(=O)(=O)Nc2ccc(O)c3ccccc23)c1 | 8.62
2 | Cc1ccc(C)n1-c1ccc(C(=O)O)cc1 | 5.12
3 | CN(C)[C@@H]1C(=O)C(C(=O)NCN2CCCC2)=C(O)[C@@]2(O)C(=O)C3=C(O)c4c(O)cccc4[C@@](C)(O)C3CC12 (stereo not given in full) | 0.33
4 | CC(=O)OCCCNc1cc(Sc2nc3ccccc3s2)c2nonc2c1[N+](=O)[O-] | 53.1
5 | COc1cc(NC(=O)c2cc3nc(C)cc(C)n3n2)c(OC)cc1Cl | 92.1
6 | O=C1c2ccccc2C(=O)N1OCCOCCOCCBr | 92.3
7 | CCN(CC)CCN1C(=O)c2ccccc2NC1c1ccc(N(C)C)cc1 (stereo not given) | 90.1
8 | CC1CCC/C(=C\Nc2ccc(C(=O)O)c(O)c2)C1=O (stereo not given) | 17.1
9 | Cc1cc(C(=O)CSc2nc3ccccc3c(=O)[nH]2)c(C)n1C | 31.6
10 | C=C(C)C(=O)Nc1cccc(C2=NOC3(C2)C[C@@H](C(N)=O)N(C(=O)CC(c2ccccc2)c2ccccc2)C3)c1 (stereo not given in full) | 3.06
11 | O=C1/C(=C\c2ccco2)SC(=S)N1c1ccccc1 | 2.58
12 | CS(=O)(=O)N1CCCC(C(=O)NCCCN2CCC(Cc3ccccc3)CC2)C1 (stereo not given) | 84.4
13 | O=C(Nc1ccc2nc(-c3ccco3)c(-c3ccco3)nc2c1)NC1CC1 | 0.3
14 | O=C(Nc1ccn(-c2ccccc2)n1)c1ccccc1Br | 10.6
15 | CC(=O)N1CCN(c2nc(-c3ccco3)c3c(c2C#N)CC(C)(C)SC3)CC1 | 25.3
16 | CC(C)N1C(=O)/C(=C/C=C/c2ccco2)C(=O)N(Cc2ccco2)C1=O | 2.19
17 | O=C(O)c1ccc2c(c1)C1C(Cl)C(Sc3ccccc3[N+](=O)[O-])CC1C(c1cccc([N+](=O)[O-])c1)N2 (stereo not given) | 11.8
18 | CC1=C(C(=O)Nc2ccccc2F)C(c2ccsc2)C2=C(CC(c3ccccc3)CC2=O)N1 (stereo not given) | 1.02
19 | CC(C)CCNC(=O)c1ccc2c(SCC(=O)O)c3c(nc2c1)CCC3 | 59.8
20 | COC(=O)c1ccccc1NC(=O)C1CCCC1 | 0.55
21 | CC(=C/C(=O)O)/C=C/c1ccc(Cl)o1 | 27.4
22 | Cc1cc(Cl)c(S(=O)(=O)NCC2CCCO2)cc1OCC(=O)NC1CCCCC1 (stereo not given) | 77.1
23 | c1coc(-c2nc3nc4ccccc4n3nc2-c2ccco2)c1 | 12.3
24 | O=C(CCc1ccc(S(=O)(=O)NCCc2ccccc2)cc1)Nc1ccc2c(c1)OCO2 | 43.5
25 | NCCc1c[nH]c2ccccc12 | 1.66
26 | O=C(c1ccc2nc(-c3ccco3)c(-c3ccco3)nc2c1)N1CCC2(CC1)OCCO2 | 0.35
27 | O=C(NCC1CCCO1)c1cc(-c2ccco2)nc2ccccc12 (stereo not given) | 14.4
28 | COC/C=C/C1=CC2=CC(=O)C(C)(OC(=O)c3ccco3)C(=O)C2=CO1 (stereo not given) | 1.52

Row | SMILES | IC50 [µM]
29 | O=C1C2CCCN2C(c2ccc(Cl)cc2)N1c1ccccn1 (stereo not given) | 84.7
30 | NS(=O)(=O)c1ccc(N/N=C/c2ccc(O)c(O)c2O)c([N+](=O)[O-])c1 | 0.92
31 | O=C(CCc1c[nH]c2ccccc12)N1CCN(c2ccc(O)cc2)CC1 | 13.3
32 | CCN1CCc2c(C#N)c(NCc3ccccc3)nc(N(CC)CC)c2C1 | 62.8
33 | O=C(O)CCCNc1cc(N2CCC3(CC2)OCCO3)c2noc3c2c1C(=O)c1ccccc1-3 | 0.97
34 | Cc1ccc(Cn2c(=S)[nH]c3ccc(N4CCOCC4)cc3c2=O)o1 | 0.61
35 | CCN(CC(=O)Nc1c(F)cccc1F)C(=O)c1cccc(-n2cccc2)c1 | 20.9
36 | Cc1cc2nc(C)n(CCCNC(=O)Nc3ccc(F)cc3)c2cc1C | 47.6
37 | CC1=Nc2cccc3cccc(c23)N1 | 0.53
38 | Oc1ccc(N=Cc2sc3ccccc3c2Cl)cc1 | 3.11
39 | COC(=O)C1C(O)C(C)C(O)C(C)(O)/C=C\C=C(/C)C(=O)Nc2c(C)c(OC(C)=O)c3c(c2O)C(=O)C(C)=C2OCOC(=C23)/C(C)=C/C(C)(O)C(O)C(C)C1O (stereo not given) | 13.6
40 | O=C(CCN1CCN(c2ccccc2)CC1)N/N=C/c1ccc(O)c(O)c1O | 1.02
41 | COC(=O)c1ccccc1-c1c2ccc(=N)cc-2oc2cc(N)ccc12 | 13.6
42 | CCN1C(=O)/C(=C\c2ccc([N+](=O)[O-])s2)C(=O)NC1=S | 1.53
43 | Cn1cccc1/C=C1\C(=O)NC(=O)N(Cc2ccco2)C1=O | 9.46
44 | O=C1C2CCCN2C(c2cccs2)N1c1ccccn1 (stereo not given) | 82
45 | O=S(=O)(O)c1cccc2c(N=Nc3ccc(O)c4ncccc34)cccc12 | 13.6
46 | CCOC(=O)c1cc2cc(F)ccc2nc1C | 1.65
47 | O=C1NC(=O)C(=CN2CCc3ccccc32)C(=O)N1 | 91.3
48 | CC[n+]1c(/C=C2\C=C(C)CC(C)(C)C2)sc2ccccc21 | 57.9
49 | CN1CCN(c2ccc(N)cc2)CC1 | 15.6
50 | CCOC(=O)c1cc([N+](=O)[O-])cc([N+](=O)[O-])c1Sc1ncnc2nc[nH]c12 | 69.6
51 | Cn1c2ccccc2c2ccc3c(c21)C(=O)C=CC3=O | 23.8
52 | O=C(O)c1cccc(CSc2nnc(COc3ccccc3)o2)c1 | 88.2
53 | O=C1NC(=O)N(c2ccc(Cl)cc2)C(=O)/C1=C\c1ccc(Sc2nc3ccccc3[nH]2)o1 | 11.7
54 | COCCCNC(=O)/C(C#N)=C/c1ccc(OCC(=O)O)c(OC)c1 | 4.12
55 | CC(=O)OC(C)C1C2=C(C(=O)CC1(C)O)C(=O)c1c(ccc(-c3ccc4c(c3O)C(=O)C3=C(C4=O)C(C(C)OC(C)=O)C(C)(O)CC3=O)c1O)C2=O (stereo not given) | 0.73
